Data taken from paper PMC12040169 (PLOS Biology, 2025).

Experiment: in vitro
Conditions: human, hela cells, % viability

SMILES	viability at 28.5 h, 10 µM [%]	viability at 28.5 h, 10 µM (bulk resorufin, single well) [%]
C=CCC1(CC=C)CCN1C(=O)Cc1c(C)nc(SC)[nH]c1=O [CBK282661]	86.9	–
CC1CCCCN1Cc1ccc(-c2nnn(CC(=O)NCc3ccco3)n2)cc1 (centres unmarked) [CBK122002]	96	–
CCN(CC)C(=O)C1CCCN(C(=O)NCCc2c[nH]cn2)C1 (centres unmarked) [CBK156124]	96.9	–
COc1ccccc1N(CC(=O)Nc1c(C)cccc1C)S(=O)(=O)c1ccc(C)cc1 [CBK264810]	96.5	–
O=C(CCNCCc1c[nH]c(=O)[nH]c1=O)Nc1cccc(Cl)c1 [CBK306889]	86.3	–
Cc1ccc(NC2=NC3(N=C(N)N2)C(=O)N(C)c2ccccc23)cc1 (centres unmarked) [CBK270157]	84.9	–
CNC(=O)CN1C(=O)CC2(C1=O)C(=O)N(CCOC)c1ccc(OC)cc12 (centres unmarked) [CBK075144]	90.8	–
O=C1NC2=NOCCC2=CN1[C@H]1C[C@@H](O)[C@@H](CO)O1 [CBK201192]	96.8	–
C/C(=N\NC(N)=S)C(=O)O [CBK261575]	102	–
COc1ccccc1N1CCN(CC(O)COCc2ccc3c(c2)OCO3)CC1 (centres unmarked) [CBK278323C]	101	–
COc1ccc(OCCNC(=O)c2ccccc2-n2cccc2)cc1 [CBK149592]	95.6	–
OCCN(CCO)c1cncc(-c2cccc(C(F)(F)F)c2)n1 [CBK037917]	109	–
Cc1nc(C)c(-c2csc(Nc3ccc(S(N)(=O)=O)cc3)n2)s1 [CBK263292B]	95.8	–
CCC1(c2ccccc2)C(=O)NC(=O)N(CCN2CCOCC2)C1=O (centres unmarked) [CBK288379]	–	88
CSCCN1CCC(Oc2cncc(OCC3COc4ccccc4O3)n2)C1 (centres unmarked) [CBK084381]	105	–
O=S(=O)(c1cccc(F)c1)N1CCC(Cc2ccccc2)CC1 [CBK044828]	102	–
Cc1cc(C)n2c(SCC(=O)c3ccccc3)nnc2n1 [CBK265378]	84.3	–
O=C(Cc1c[nH]c2ccccc12)N1CCC2(CCCN(C(=O)c3cccc(C(F)(F)F)c3)C2)C1 (centres unmarked) [CBK131578]	97.2	–
Cc1nc2c(C(=O)N3CCOCC3)cnn2c(C)c1Cc1ccccc1 [CBK162201]	113	–
Cn1c(=O)n(C)c2cc(CNCc3cccnc3)ccc21 [CBK268432C]	99.1	–
COc1ccc(S(=O)(=O)Nc2ccc(C(=O)O)cc2)cc1OC [CBK034048]	96.2	–
O=c1[nH]c(=O)c2cc(S(=O)(=O)NCCN3CCc4ccccc43)ccc2[nH]1 [CBK286360]	91.5	–

SMILES	viability at 28.5 h, 10 µM [%]	viability at 28.5 h, 10 µM (bulk resorufin, single well) [%]
CC(=O)N1CCC(C(=O)NC(=O)NCc2ccc3c(c2)CCO3)CC1 [CBK034837]	93.8	–
C#CC1(NC(=O)NS(=O)(=O)c2ccc(C)cc2)CCCCC1 [CBK028805]	96.9	–
NS(=O)(=O)c1ccc(Nc2nc(-c3ccccc3)c(CC(=O)O)s2)cc1 [CBK131899]	91.6	–
CC(=O)N1c2ccccc2N(C(C)=O)C1c1ccc(C2N(C(C)=O)c3ccccc3N2C(C)=O)[nH]1 [CBK007216]	110	–
Cc1ccc(NC(=O)c2nccc3ccccc23)c(C)n1 [CBK200294]	93.2	–
CC(C)(C)OC(=O)NCCc1ccc(Nc2cc(-c3cc4ccccc4s3)ncn2)cc1 [CBK090959]	94.3	–
c1ccc(Nc2nc3nonc3n3cnnc23)cc1 [CBK287278]	105	–
O=C(O)/C=C/c1cccc(-c2cn3ccnc3c(N3CCN(c4ccncc4)CC3)n2)c1 [CBK066326]	94.8	–
COc1ccc(CN2CCN(S(C)(=O)=O)CC2)c(OC)c1OC [CBK074491]	102	–
Cc1nn(C)c(C)c1CN(C)S(=O)(=O)Cc1ccc(F)cc1 [CBK281590]	86.8	–
COC(=O)[C@@H]1Cc2ncn(C(C)C)c2CN1C(=O)c1ccccc1 [CBK288987]	82.2	–
Cc1nn(C)cc1S(=O)(=O)Nc1cccc(-c2ccc(F)cc2)c1 [CBK282788]	103	–
COc1cc([N+](=O)[O-])cc(CN2CCN(CCO)CC2)c1O [CBK261851]	92.4	–
COCCNc1nc(-c2ccsc2)ccc1C(=O)N1CCN(C)CC1 [CBK105948]	112	–
CCOC(=O)C1(c2ccccc2)CCN(C(=O)c2cccc3[nH]ccc23)CC1 [CBK132193]	–	95.7
c1ccc(OCCN2CCCN(c3cc(OCC4COc5ccccc5O4)ncn3)CC2)cc1 (centres unmarked) [CBK083395T]	87.7	–
COc1cc(C(=O)Nc2nc3c(s2)CC(C)CC3)cc(OC)c1OC (centres unmarked) [CBK287299]	107	–
O=C(O)CC(NC(=O)OCc1ccccc1)c1ccccc1 (centres unmarked) [CBK265351]	107	–
CC(=O)c1sc(=S)n(N(C)C)c1C [CBK006774]	91.6	–
COc1cccc(Oc2nccnc2-c2ccc(F)cc2)c1 [CBK106897]	93.5	–
Nc1nc2c(s1)c(O)nc(=O)n2Cc1ccccc1 [CBK291257]	88.6	–
Cc1ccc([N+](=O)[O-])cc1NC1OCC(O)C(O)C1O (centres unmarked) [CBK262026]	98.8	–
